From patent publication US7872052B2, “Use of heterocyclic compounds as SCCE inhibitors” (Arexis AB, priority 2003, dated 2011) come the findings set out here.

The structures appear in SMILES notation.

This test deals with T1, Recombinant active human SCCE (Homo sapiens, UniProt P49862).
T1 construct: made in house; host or cells: murine C127 cells transfected with a BPV vector (murine MT promoter)
Briefly: SCCE Inhibitor Test (chromogenic substrate S-2586, absorbance at 405 nm). It counts as biochemical. To be noted: for IC50: 10 min preincubation, 1 mM S-2586, 60 min, 37° C, pH 7.2; for remaining activity at 10 µM / remaining activity at 1 µM / remaining activity at 5 µM: 1 h; for remaining activity at 1 µM: 1 μM compound; for remaining activity at 5 µM: 5 μM compound. Here is the method: Recombinant active human SCCE was produced essentially as described in WO 95/00651. The cDNA encoding human SCCE was introduced into a BPV vector under the control of the murine MT promoter and expressed in transfected C127 cells. The produced SCCE was purified and activated using immobilized bovine trypsin.
SCCE activity was determined using the chromogenic substrate S-2586 (MeO-Suc-Arg-Pro-Tyr-pNA) (Chromogenix, Mölndal, Sweden) by measurement of the change in absorbance at 405 nm essentially as described in WO 95/00651. Inhibitors were dissolved in DMSO and added to the reaction mixture (10 mM sodium phosphate, pH 7.2, 0.5 M NaCl, 2.5 μg/ml SCCE) at appropriate concentrations followed by incubation for 10 min before the start of the enzymatic reaction by subsequent addition of the substrate S-2586 to a final concentration of 1 mM. The change in absorbance at 405 nm after 60 min was recorded and used as a measure of SCCE activity. The assay temperature was 37° C. […] The IC50 values were used to identify compounds as SCCE inhibitors of the invention.

T1 sequence (P49862 30-253): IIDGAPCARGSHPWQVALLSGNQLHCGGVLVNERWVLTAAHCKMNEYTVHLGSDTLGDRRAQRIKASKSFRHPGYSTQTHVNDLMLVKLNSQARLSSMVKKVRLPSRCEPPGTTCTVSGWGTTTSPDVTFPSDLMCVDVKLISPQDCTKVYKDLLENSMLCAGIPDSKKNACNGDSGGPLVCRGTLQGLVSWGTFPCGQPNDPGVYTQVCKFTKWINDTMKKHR

One may read the IC50 as the concentration needed to halve the response being measured. Usually remaining activity stands for what remains of the control signal, in per cent. For the compound `O=c1oc(-c2ccccc2)nc2ccccc12` [Compound I-1, 2-Phenyl-benzo[d][1,3]oxazin-4-one], the IC50 came to 2000 nM. Also, the remaining activity at 10 µM (10 μM compound) amounted to 27%.

`O=c1oc(-c2ccc([N+](=O)[O-])cc2Cl)nc2cc(Cl)ccc12` [Compound I-2, 7-Chloro-2-(2-chloro-4-nitro-phenyl)-benzo[d][1,3]oxazin-4-one]: the half-inhibitory concentration (IC50) stood at 100 nM, the remaining activity at 1 µM came to 15% and the remaining activity at 5 µM turned out to be 0%.

Regarding `O=c1oc(-c2cccs2)nc2cc(Cl)ccc12` [Compound I-4, 7-Chloro-2-thiophen-2-yl-benzo[d][1,3]oxazin-4-one], the 50% inhibitory concentration (IC50) was determined as 250 nM, the remaining activity at 1 µM turned out to be 22% and the remaining activity at 5 µM turned out to be 5%.

As to `COc1cc2nc(-c3ccc([N+](=O)[O-])cc3Cl)oc(=O)c2cc1OC` [Compound I-5, 2-(2-Chloro-4-nitro-phenyl)-6,7-dimethoxy-benzo[d][1,3]oxazin-4-one], the 50% inhibitory concentration (IC50) was 500 nM. Besides, the remaining activity at 10 µM (10 μM compound) was 9%.

As for `O=c1oc(-c2cc([N+](=O)[O-])ccc2Cl)nc2ccccc12` [Compound I-6, 2-(2-Chloro-5-nitro-phenyl)-benzo[d][1,3]oxazin-4-one], the IC50 was found to be 500 nM. For the same compound, the remaining activity at 10 µM (10 μM compound) came out at 22%.

For `CN(C)c1nc2cc(Cl)cc(Cl)c2c(=O)o1` [Compound I-7], the IC50 was 2000 nM. Moreover, the “% SCCE activity” value (10 μM compound) turned out to be 7%.

Take `O=c1oc(-c2ccncc2)nc2ccccc12` [Compound I-8, 2-Pyridin-4-yl-benzo[d][1,3]oxazin-4-one]: the IC50 is 5000 nM. For the same compound, the remaining activity at 10 µM (10 μM compound) was found to be 24%.

In the case of `O=c1oc(-c2cccs2)nc2ccccc12` [Compound I-9, 2-Thiophen-2-yl-benzo[d][1,3]oxazin-4-one], the concentration for half-maximal inhibition (IC50) was 5000 nM. Besides, the remaining activity at 10 µM (10 μM compound) is 23%.

Take `O=c1oc(-c2ccccc2O)nc2ccccc12` [Compound I-10, 2-(2-Hydroxy-phenyl)-benzo[d][1,3]oxazin-4-one]: the half-maximal inhibitory concentration (IC50) turned out to be 5000 nM, the remaining activity at 1 µM amounted to 71% and the remaining activity at 5 µM was determined as 47%. The remaining activity at 10 µM (10 μM compound) worked out at 32%.

Consider `COc1cc2nc(-c3ccccc3F)oc(=O)c2cc1OC` [Compound I-11, 2-(2-Fluoro-phenyl)-6,7-dimethoxy-benzo[d][1,3]oxazin-4-one], for which the IC50 was 700 nM, the remaining activity at 1 µM stood at 39% and the remaining activity at 5 µM came to 8%.

For the compound `CCc1ccc(-c2nc3cc(Cl)ccc3c(=O)o2)cc1` [Compound I-12, 7-Chloro-2-(4-ethyl-phenyl)benzo[d][1,3]oxazin-4-one], the IC50 was 2000 nM, the remaining activity at 1 µM was 33% and the remaining activity at 5 µM worked out at 15%.

For `Cc1cc(-c2nc3cc(Cl)ccc3c(=O)o2)ccc1[N+](=O)[O-]` [Compound I-13, 7-Chloro-2-(3-methyl-4-nitro-phenyl)-benzo[d][1,3]oxazin-4-one], the IC50 was determined as 2000 nM, the remaining activity at 1 µM came out at 56% and the remaining activity at 5 µM came out at 36%.

Consider `COc1cc2nc(-c3ccc(NC(C)=O)cc3)oc(=O)c2cc1OC` [Compound I-14, N-[4-(6,7-Dimethoxy-4-oxo-4H-benzo[d][1,3]oxazin-2-yl)-phenyl]-acetamide], for which the IC50 was 5000 nM. Moreover, the remaining activity at 10 µM (10 μM compound) was 52%.

`CC(=O)Oc1ccc(-c2nc3ccccc3c(=O)o2)cc1` [Compound I-15, Acetic acid 4-(4-oxo-4H-benzo[d][1,3]oxazin-2-yl)-phenyl ester]: the IC50 worked out at 5000 nM, the remaining activity at 1 µM amounted to 52% and the remaining activity at 5 µM stood at 22%.

On to `COc1cc2nc(-c3ccccc3Cl)oc(=O)c2cc1OC` [Compound I-16, 2-(2-Chloro-phenyl)-6,7-dimethoxy-benzo[d][1,3]oxazin-4-one], for which the IC50 came to 170 nM and the remaining activity at 1 µM turned out to be 15%. Moreover, the remaining activity at 10 µM (10 μM compound) turned out to be 3%.

Take `O=c1nc(-c2cccs2)oc2ccc(Cl)cc12` [Compound I-17, 6-Chloro-2-thiophen-2-yl-benzo[e][1,3]oxazin-4-one]: the IC50 amounted to 320 nM, the remaining activity at 1 µM turned out to be 18% and the remaining activity at 5 µM came out at 4%.

With `O=c1nc(-c2ccco2)oc2ccc(Cl)cc12` [Compound I-18, 6-Chloro-2-furan-2-yl-benzo[e][1,3]oxazin-4-one], the IC50 was found to be 600 nM, the remaining activity at 1 µM is 26% and the remaining activity at 5 µM stood at 7%.

Turning to `O=c1nc(-c2ccccc2Cl)oc2ccccc12` [Compound I-19, 2-(2-Chlorophenyl)-benzo[e][1,3]oxazin-4-one], the concentration for half-maximal inhibition (IC50) came to 4000 nM, the remaining activity at 1 µM is 76% and the remaining activity at 5 µM was 44%.

As for `O=c1nc(-c2cccs2)oc2ccccc12` [Compound I-20, 2-Thiophen-2-yl-benzo[e][1,3]oxazin-4-one], the remaining activity at 1 µM amounted to 54% and the remaining activity at 5 µM was 16%.

`O=c1nc(-c2ccco2)oc2ccccc12` [Compound I-21, 2-Furan-2-yl-benzo[e][1,3]oxazin-4-one]: the remaining activity at 1 µM stood at 47% and the remaining activity at 5 µM turned out to be 16%.

Regarding `CCc1cc2c(=O)oc(-c3ccccc3F)nc2s1` [II-1, 6-Ethyl-2-(2-fluoro-phenyl)-thieno[2,3-d][1,3]oxazin-4-one], the IC50 worked out at 70 nM, the remaining activity at 1 µM was determined as 0% and the remaining activity at 5 µM was found to be 0%.

As to `Cc1cc2c(=O)oc(-c3cccc4ccccc34)nc2s1` [II-2, 6-Methyl-2-naphtalen-1-yl-thieno[2,3-d][1,3]oxazin-4-one], the IC50 amounted to 50 nM. For the same compound, the remaining activity at 10 µM (10 μM compound) stood at 4%.

`CCc1cc2c(=O)oc(-c3ccccc3C)nc2s1` [II-3, 6-Ethyl-2-o-tolyl-thieno[2,3-d][1,3]oxazin-4-one]: the IC50 came out at 150 nM, the remaining activity at 1 µM came to 3% and the remaining activity at 5 µM is 0%.

With `CCc1cc2c(=O)oc(-c3ccc(F)cc3)nc2s1` [II-4, 6-Ethyl-2-(4-fluoro-phenyl)-thieno[2,3-d][1,3]oxazin-4-one], the half-maximal inhibitory concentration (IC50) was determined as 300 nM, the remaining activity at 1 µM came to 15% and the remaining activity at 5 µM is 8%.

For `O=c1oc(-c2ccccc2Cl)nc2ccsc12` [II-5, 2-(2-chloro-phenyl)-4H-thieno[3,2-d][1,3]oxazin-4-one], the IC50 stood at 500 nM. Also, the remaining activity at 10 µM (10 μM compound) was determined as 1%.

Consider `O=c1oc(-c2ccccc2)nc2ccsc12` [II-6, 2-phenyl-4H-thieno[3,2-d][1,3]oxazin-4-one], for which the IC50 worked out at 1000 nM. For the setting “10 μM compound”, the remaining activity at 10 µM is 9%.

As for `Cc1sc2nc(-c3ccco3)oc(=O)c2c1C` [II-7, 2-Furan-2-yl-5,6-dimethyl-thieno[2,3-d][1,3]oxazin-4-one], the IC50 was 1500 nM, the remaining activity at 1 µM amounted to 50% and the remaining activity at 5 µM was 13%.

Take `O=c1oc(-c2ccc(F)cc2)nc2ccsc12` [II-8, 2-(4-fluoro-phenyl)-4H-thieno[3,2-d][1,3]oxazin-4-one]: the half-maximal inhibitory concentration (IC50) amounted to 1000 nM. Besides, the remaining activity at 10 µM (10 μM compound) came out at 10%.

For the compound `CCc1cc2c(=O)oc(-c3ccc(Br)cc3)nc2s1` [II-9, 2-(4-Bromo-phenyl)-6-ethyl-thieno[2,3-d][1,3]oxazin-4-one], the IC50 stood at 1000 nM, the remaining activity at 1 µM came out at 58% and the remaining activity at 5 µM turned out to be 37%.

Turning to `O=c1oc(-c2ccccc2Cl)nc2sc3c(c12)CCC3` [II-10, 6-(2-Chloro-phenyl)-2,3-dihydro-1H-5-oxa-8-thia-7-aza-cyclopenta[a]indene-4-one], the IC50 amounted to 20 nM, the remaining activity at 1 µM was 10% and the remaining activity at 5 µM was found to be 2%.

As to `O=c1oc(-c2ccco2)nc2sc3c(c12)CCC3` [II-11, 6-Furan-2-yl-2,3-dihydro-1H-5-oxa-8-thia-7-aza-cyclopenta[a]inden-4-one], the IC50 came to 200 nM, the remaining activity at 1 µM is 8% and the remaining activity at 5 µM was 8%.

`O=c1oc(-c2ccccc2)nc2sc3c(c12)CCC3` [II-12, 6-Phenyl-2,3-dihydro-1H-5-oxa-8-thia-7-aza-cyclopenta[a]inden-4-one]: the IC50 was determined as 200 nM, the remaining activity at 1 µM was found to be 19% and the remaining activity at 5 µM is 16%.

In the case of `O=c1oc(-c2ccc(F)cc2)nc2sc3c(c12)CCC3` [II-13, 6-(4-Fluoro-phenyl)-2,3-dihydro-1H-5-oxa-8-thia-7-aza-cyclopenta[a]inden-4-one], the IC50 was found to be 300 nM, the remaining activity at 1 µM was 37% and the remaining activity at 5 µM was determined as 14%.

Turning to `O=c1oc(-c2cccs2)nc2sc3c(c12)CCC3` [II-14, 6-Thiophen-2-yl-2,3-dihydro-1H-5-oxo-8-thia-7-aza-cyclopenta[a]inden-4-one], the IC50 stood at 300 nM, the remaining activity at 1 µM turned out to be 37% and the remaining activity at 5 µM worked out at 21%.
